Experimental data published in ChEMBL document CHEMBL1158145, “Xenofuranones A and B: phenylpyruvate dimers from Xenorhabdus szentirmaii” (J Nat Prod, 2006).
Values after ≈ are worked out from the molar mass of the structure shown.

Test system: L929
Assay: Cytotoxicity against mouse L929 cells
Assay type: cell-based

COC1=C(c2ccccc2)C(Cc2ccccc2)OC1=O (stereo unspecified) [XENOFURANONE A]
IC50: 18 µg/mL (≈ 64.2 µM)
